Results on three compounds are retold here after patent publication US6524789B1, “Human neuronal nicotinic acetylcholine receptor compositions and methods employing same” (Merck & Co., Inc., priority 1995, dated 2003).

What is called EC50 is the concentration giving half of the maximal effect. High values mean lower potency in that assay, low ones higher potency in that assay.

Experiment [1] deals with T1, functional recombinant nAChR (Homo sapiens, UniProt Q15825).
T1 construct: A 1,743 bp EcoRI fragment, encoding a full-length nAChR α6 subunit, was isolated from KEα6.3; expressed in transfected cells; host or cells: HEK 293 cells, transiently or stably co-transfected
T1 sequence (Q15825 31-494): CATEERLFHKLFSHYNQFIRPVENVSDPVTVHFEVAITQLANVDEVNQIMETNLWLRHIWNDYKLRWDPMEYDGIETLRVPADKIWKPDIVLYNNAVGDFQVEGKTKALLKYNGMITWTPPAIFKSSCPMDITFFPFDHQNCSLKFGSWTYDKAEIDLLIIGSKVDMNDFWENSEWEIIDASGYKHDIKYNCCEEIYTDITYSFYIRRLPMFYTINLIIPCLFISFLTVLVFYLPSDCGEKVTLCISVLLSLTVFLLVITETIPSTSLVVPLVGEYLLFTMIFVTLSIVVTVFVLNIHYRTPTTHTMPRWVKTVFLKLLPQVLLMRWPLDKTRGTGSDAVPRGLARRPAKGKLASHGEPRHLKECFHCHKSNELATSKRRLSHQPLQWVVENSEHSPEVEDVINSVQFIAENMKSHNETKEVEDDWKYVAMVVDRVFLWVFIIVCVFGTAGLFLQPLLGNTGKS
T1 sequence (Q05901 25-458 partner limits assumed): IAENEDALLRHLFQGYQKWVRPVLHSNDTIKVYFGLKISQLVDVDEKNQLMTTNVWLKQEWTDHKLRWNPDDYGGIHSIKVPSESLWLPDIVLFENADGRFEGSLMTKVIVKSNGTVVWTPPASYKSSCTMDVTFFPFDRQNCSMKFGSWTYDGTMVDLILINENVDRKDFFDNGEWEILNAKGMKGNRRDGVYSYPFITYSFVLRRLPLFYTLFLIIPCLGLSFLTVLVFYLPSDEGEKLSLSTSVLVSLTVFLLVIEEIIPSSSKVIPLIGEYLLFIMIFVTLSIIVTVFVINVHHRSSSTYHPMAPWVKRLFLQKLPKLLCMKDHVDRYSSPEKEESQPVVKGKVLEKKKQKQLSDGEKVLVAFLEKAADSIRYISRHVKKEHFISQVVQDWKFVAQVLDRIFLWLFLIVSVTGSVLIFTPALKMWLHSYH
Type of experiment: cell-based.
Source text: Activation of the ligand-gated nAChR by agonists leads to an influx of cations, including Ca^++, through the receptor channel. Ca^++ entry into the cell through the channel can induce release of calcium contained in intracellular stores. Monovalent cation entry into the cell through the channel can also result in an increase in cytoplasmic Ca^++ levels through depolarization of the membrane and subsequent activation of voltage-dependent calcium channels. Therefore, methods of detecting transient increases in intracellular calcium concentration can be applied to the analysis of functional nicotinic nAChR expression. One method for measuring intracellular calcium levels relies on calcium-sensitive fluorescent indicators.
Calcium-sensitive indicators, such as fluo-3 (Catalog No. F01241, Molecular Probes, Inc., Eugene, Oreg.), are available as acetoxymethyl esters which are membrane permeable. […] Interaction of the free indicator with calcium results in increased fluorescence of the indicator; therefore, an increase in the intracellular Ca^2+ concentration of cells containing the indicator can be expressed directly as an increase in fluorescence.
HEK cells that are transiently or stably co-transfected with DNA encoding appropriate α and/or β subunits and α6 and β3 subunits are analyzed for expression of functional recombinant nAChR using the automated fluorescent indicator-based assay. […]

The test system of a further experiment is untransfected HEK cells. The settings on record: fluo-3, 200 μM nicotine.
A further experiment deals with PC12. Nature of the experiment: 86Rb ion-flux assay, positive control cells PC12. Type of experiment: cell-based. As to conditions: Rattus norvegicus, PC-12, antagonist, 86Rb influx.

Procedure for PC12: The ^86Rb ion-flux assay is conducted as follows:
1. The night before the experiment, cells are plated at 2×10^6 per well (i.e., 2 ml per well) in a 6-well polylysine-coated plate.
2. The culture medium is decanted and the plate washed with 2 ml of assay buffer (50 mM HEPES, 260 mM sucrose, 5.4 mM KCl, 1.8 mM CaCl2, 0.8 mM MgSO4, 5.5 mM glucose) at room temperature.
3. The assay buffer is decanted and 1 ml of assay buffer, containing 3 μCi/ml ^86Rb, with 5 mM ouabain and agoinist or antagonist in a concentration to effect a maximum response, is added.
4. The plate is incubated on ice at 1° C. for 4 min.
5. The buffer is decanted into a waste container and each well was washed with 3 ml of assay buffer, followed by two washes of 2 ml each.
6. The cells are lysed with 2×0.5 ml of 0.2% SDS per well and transferred to a scintillation vial containing 5 ml of scintillation fluid.
7. The radioactivity contained in each vial 5 is measured and the data calculated.
Procedure for untransfected HEK cells: HEK cells that are transiently or stably co-transfected with DNA encoding appropriate α and/or β subunits and α6 and β3 subunits are analyzed for expression of functional recombinant nAChR using the automated fluorescent indicator-based assay. The assay procedure is as follows. Untransfected HEK cells and HEK cells co-transfected with DNA encoding the appropriate α and β subunits are plated in the wells of a 96-well microtiter dish and loaded with fluo-3 by incubation for 2 hours at 20° C. in a medium containing 20 μM fluo-3, 0.2% Pluronic F-127 in HBS (125 mM NaCl, 5 mM KCl, 1.8 mM CaCl2, 0.62 mM MgSO4, 6 mM glucose, 20 mM HEPES, pH 7.4). The cells are then washed with assay buffer (i.e., HBS). The antagonist d-tubocurarine is added to some of the wells at a final concentration of 10 μM.

`CN1CCCC1c1cccnc1` (stereo not shown) [nicotine]: the “fluorescence after addition of nicotine” value is on record as “increases dramatically” in experiment [1] and “does not change” in the experiment with untransfected HEK cells.

Turning to `COc1cc2c3cc1Oc1cc(ccc1O)C[C@@H]1c4c(cc(OC)c(O)c4Oc4ccc(cc4)C[C@@H]3N(C)CC2)CC[N+]1(C)C` [d-tubocurarine], the “nicotine-stimulated increase in fluorescence in cells exposed to antagonist” value in experiment [1] (co-transfected HEK cells, 10 μM d-tubocurarine, 200 μM nicotine) was “not observed”. The compound `CN1[C@@H]2CC[C@H]1C[C@@H](OC(=O)C(CO)c1ccccc1)C2` (stereo partly shown) [atropine] gave an EC50 with PC12 of 12.5 µM. That is a double-digit micromolar value.
